We go through one compound from patent US20210032257A1, “(E)-1-(4-(DIMETHYLAMINO)BUT-2-ENOYL)PYRROLIDIN-3-YL 4-((3-ISOPROPYL-5-METHYLPYRAZOLO[1,5-A]PYRIMIDIN-7-YL)AMINO)PIPERIDINE-1-CARBOXYLATE FOR INHIBITING CDK7” (Eli Lilly and Company, priority 2017, published 2021).

Test in all cases: ProQinase WT Profiler radiometric protein kinase assay
Assay type in all cases: biochemical

In one test the target is T1, CDK2/CycE1 (Homo sapiens, UniProt P24941).
T1 construct: purchased ProQinase
The following applies: non standard IC50 from 4 concentrations, kinase 1.5 nM, ATP 1 μM. The protocol:
(§1) Kinase inhibition profile of compound is determined by measuring residual activity values at four concentrations in singlicate in 320 wild-type protein kinase assays. The compounds are tested at 20 μM, 2 μM, 0.2 μM and 0.02 μM in singlicate. The final DMSO concentration in all reaction cocktails (including high and low controls) is 1%.
(§2) A radiometric protein kinase assay (33PANQINASE® Activity Assay, ProQinase) is used for measuring the kinase activity of the 320 protein kinases. All kinase assays are performed in 96-well FLASHPLATES™ in a 50 μL reaction volume. The reaction cocktail is pipetted in 4 steps in the following order:
(§3) All PKC assays (except the PKC-mu and the PKC-nu assay) additionally contain 1 mM CaCl2). 4 mM EDTA, 5 μg/mL Phosphatidylserine and 1 μg/mL 1,2-Dioleyl-glycerol. The CAMK1D, CAMK2A, CAMK2B, CAMK2D, CAMK2G, CAMK4, CAMKK1, CAMKK2, DAPK2, EEF2K, MYLK, MYLK2 and MYLK3 assays additionally contain 1 μg/mL Calmodulin and 0.5 mM CaCl2). The PRKG1 and PRKG2 assays additionally contain 1 μM cGMP. The DNA-PK assay additionally contained 2.5 μg/mL DNA.
(§4) The protein kinase reaction cocktails are incubated at 30° C. for 60 minutes. The reaction is stopped with 50 μL of 2% (v/v) H3PO4, plates are aspirated and washed two times with 200 μL 0.9% (w/v) NaCl. […] All protein kinase assays are performed with a BeckmanCoulter BIOMEK® 2000/SL robotic system. All protein kinases provided by ProQinase are expressed in Sf9 insect cells or in E. coli as recombinant GST-fusion proteins or His-tagged proteins, either as full-length or enzymatically active fragments. All kinases are produced from human cDNAs and purified by either GSH-affinity chromatography or immobilized metal. Affinity tags are removed from a number of kinases during purification. The purity of the protein kinases is examined by SDS-PAGE/Coomassie staining, the identity is checked by mass spectroscopy. Kinases from external vendors (CAR=Carna Biosciences Inc.; INV=Life Technologies (Invitrogen Corporation™); MIL=Merck-Millipore (Millipore Corporation™), see Table 1) are expressed, purified and quality-controlled by virtue of the vendors readings.
(§5) For each kinase, the median value of the cpm of three wells is defined as “low control” (n=3). This value reflects unspecific binding of radioactivity to the plate in the absence of a protein kinase but in the presence of the substrate. […] The difference between high and low control of each enzyme is taken as 100% activity. As part of the data evaluation, the low control of each kinase is subtracted from the high control value as well as from their corresponding “compound values”. The residual activity (in %) for each compound well is calculated by using the following formula: Res. Activity (%)=100×[(signal of compound−low control)/(high control−low control)]. Non Standard IC50s are calculated using a customized excel spreadsheet in conjunction with XLFit Add-in. Due to the low number of data points, (4) XL-Fit calculates a non standard IC50 using a four parametric equation where three parameters are locked to fixed values.
(§6) A: Minimum value of activity, Also known as Bottom. Fixed to 0 B: Maximum value of activity, Also known as Top. Fixed to 100 C: Inflexion point of the curve D: Hill Slope. Fixed to 1 Y: The dependent variable (i.e. what you measure as the signal) X: The independent variable (i.e. what you control, such as, dose, concentration, etc.)
(§7) The way to calculate the Non Standard IC50 is to assign random values to C parameter and repeat it iteratively. The algorithm then measures the differences in the sum of the residuals squared and will look for successive consecutive iterations where the change in the residuals is converging.

Another test addresses T2, CDK9/CycT1 (Homo sapiens, UniProt P50750).
T2 construct: purchased ProQinase
Particulars: non standard IC50 from 4 concentrations, kinase 2.2 nM, ATP 1 μM. On the procedure: as §1, §2, §3, §4, §5, §6, §7

A further test deals with T3, CDK6/CycD1 (Homo sapiens, UniProt Q00534).
T3 construct: purchased ProQinase
The following applies: non standard IC50 from 4 concentrations, kinase 3.2 nM, ATP 3 μM. On the procedure:
as §1, §2, §3, §4, §5, §6, §7

The target in a further test is T4, CDK4/CycD1 (Homo sapiens, UniProt P11802).
T4 construct: purchased ProQinase
Particulars: non standard IC50 from 4 concentrations, kinase 3.3 nM, ATP 3 μM. The protocol:
as §1, §2, §3, §4, §5, §6, §7

The next test deals with T5, CDK16/CycY (Homo sapiens, UniProt Q00536).
T5 construct: purchased ProQinase
T5 sequence (Q00536 whole entry): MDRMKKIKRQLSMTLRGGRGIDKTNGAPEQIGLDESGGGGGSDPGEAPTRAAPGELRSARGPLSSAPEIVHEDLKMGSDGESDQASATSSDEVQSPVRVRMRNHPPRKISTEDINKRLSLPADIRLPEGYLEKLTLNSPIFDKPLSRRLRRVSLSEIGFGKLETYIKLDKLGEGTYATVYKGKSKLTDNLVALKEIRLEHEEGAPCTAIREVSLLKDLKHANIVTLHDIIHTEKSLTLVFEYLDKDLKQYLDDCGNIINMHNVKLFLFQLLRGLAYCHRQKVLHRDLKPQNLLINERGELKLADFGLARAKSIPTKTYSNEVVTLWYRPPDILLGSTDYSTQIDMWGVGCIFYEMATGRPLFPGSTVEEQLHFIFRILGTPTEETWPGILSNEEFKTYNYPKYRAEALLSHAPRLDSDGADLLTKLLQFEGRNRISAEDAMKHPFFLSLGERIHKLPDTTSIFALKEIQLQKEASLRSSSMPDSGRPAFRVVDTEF
T5 sequence (Q8ND76 whole entry partner): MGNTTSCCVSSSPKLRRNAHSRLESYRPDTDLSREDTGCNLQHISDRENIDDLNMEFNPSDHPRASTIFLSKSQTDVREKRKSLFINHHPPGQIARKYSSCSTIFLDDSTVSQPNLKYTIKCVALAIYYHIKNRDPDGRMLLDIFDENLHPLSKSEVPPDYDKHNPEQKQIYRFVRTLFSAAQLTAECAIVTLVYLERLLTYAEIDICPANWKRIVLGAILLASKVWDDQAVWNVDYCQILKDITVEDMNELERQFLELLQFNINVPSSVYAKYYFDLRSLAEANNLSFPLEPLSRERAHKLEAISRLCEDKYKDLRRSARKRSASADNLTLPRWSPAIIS
The following applies: non standard IC50 from 4 concentrations, kinase 3.2 nM, ATP 0.3 μM. The protocol:
as §1, §2, §3, §4, §5, §6, §7

In another test the target is T6, CDK8/CycC (Homo sapiens, UniProt P49336).
T6 construct: purchased ProQinase
T6 sequence (P49336 whole entry): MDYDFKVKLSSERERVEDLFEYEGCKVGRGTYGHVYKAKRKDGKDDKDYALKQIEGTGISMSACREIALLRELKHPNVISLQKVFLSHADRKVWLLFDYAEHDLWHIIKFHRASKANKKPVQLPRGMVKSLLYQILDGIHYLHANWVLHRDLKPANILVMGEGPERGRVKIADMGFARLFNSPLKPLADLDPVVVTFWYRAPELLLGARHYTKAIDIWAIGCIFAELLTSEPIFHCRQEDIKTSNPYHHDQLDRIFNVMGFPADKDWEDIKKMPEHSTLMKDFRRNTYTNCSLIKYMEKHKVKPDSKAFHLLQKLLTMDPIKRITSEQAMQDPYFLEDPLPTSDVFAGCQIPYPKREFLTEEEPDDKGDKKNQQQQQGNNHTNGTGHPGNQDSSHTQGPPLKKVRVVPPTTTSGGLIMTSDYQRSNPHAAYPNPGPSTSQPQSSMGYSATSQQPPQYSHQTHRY
T6 sequence (P24863 whole entry partner): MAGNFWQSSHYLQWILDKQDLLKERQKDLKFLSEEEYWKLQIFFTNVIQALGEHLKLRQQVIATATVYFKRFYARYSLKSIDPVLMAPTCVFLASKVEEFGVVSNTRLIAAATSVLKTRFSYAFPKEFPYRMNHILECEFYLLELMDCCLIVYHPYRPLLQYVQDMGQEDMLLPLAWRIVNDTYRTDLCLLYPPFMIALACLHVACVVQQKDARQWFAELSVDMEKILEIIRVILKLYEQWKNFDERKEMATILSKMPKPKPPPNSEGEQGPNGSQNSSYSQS
The following applies: non standard IC50 from 4 concentrations, kinase 8.3 nM, ATP 1 μM. The protocol:
as §1, §2, §3, §4, §5, §6, §7

The target of the next test is T7, CDK1/CycB1 (Homo sapiens, UniProt P06493).
T7 construct: purchased ProQinase
T7 sequence (P06493 whole entry): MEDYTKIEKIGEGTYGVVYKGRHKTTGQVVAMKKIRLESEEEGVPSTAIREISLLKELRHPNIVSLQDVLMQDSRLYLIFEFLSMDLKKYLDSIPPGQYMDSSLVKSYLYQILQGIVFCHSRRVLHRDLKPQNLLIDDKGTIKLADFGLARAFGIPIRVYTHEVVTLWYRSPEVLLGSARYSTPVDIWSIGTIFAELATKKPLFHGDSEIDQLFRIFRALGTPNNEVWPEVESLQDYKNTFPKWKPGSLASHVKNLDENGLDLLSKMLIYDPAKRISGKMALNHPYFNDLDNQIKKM
T7 sequence (P14635 whole entry partner): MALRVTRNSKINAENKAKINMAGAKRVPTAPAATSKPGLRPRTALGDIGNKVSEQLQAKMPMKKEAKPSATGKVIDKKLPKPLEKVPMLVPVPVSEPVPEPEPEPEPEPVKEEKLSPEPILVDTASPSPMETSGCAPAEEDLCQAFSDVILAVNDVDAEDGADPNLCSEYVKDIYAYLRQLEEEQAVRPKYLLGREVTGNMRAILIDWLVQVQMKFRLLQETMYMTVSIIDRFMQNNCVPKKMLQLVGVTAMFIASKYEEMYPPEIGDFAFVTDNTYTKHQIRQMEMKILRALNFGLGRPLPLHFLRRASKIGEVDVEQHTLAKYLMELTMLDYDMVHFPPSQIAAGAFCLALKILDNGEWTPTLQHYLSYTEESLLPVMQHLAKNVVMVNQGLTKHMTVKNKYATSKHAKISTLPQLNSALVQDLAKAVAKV
Particulars: non standard IC50 from 4 concentrations, kinase 7 nM, ATP 1 μM. On the procedure: as §1, §2, §3, §4, §5, §6, §7

The target of another test is T8, CDK7/CycH/MAT1 (Homo sapiens, UniProt P50613).
T8 construct: purchased ProQinase
T8 sequence (P50613 whole entry): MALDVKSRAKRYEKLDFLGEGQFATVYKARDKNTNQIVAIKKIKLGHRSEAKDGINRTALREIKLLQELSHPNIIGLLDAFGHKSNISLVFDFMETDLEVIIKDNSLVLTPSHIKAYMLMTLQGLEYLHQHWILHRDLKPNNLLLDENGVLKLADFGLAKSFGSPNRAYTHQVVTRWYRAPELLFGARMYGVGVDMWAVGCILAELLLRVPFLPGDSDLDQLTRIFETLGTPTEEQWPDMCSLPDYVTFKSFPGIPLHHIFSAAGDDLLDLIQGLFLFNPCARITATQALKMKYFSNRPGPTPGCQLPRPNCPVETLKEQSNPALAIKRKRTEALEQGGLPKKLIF
T8 sequence (P51946 whole entry partner): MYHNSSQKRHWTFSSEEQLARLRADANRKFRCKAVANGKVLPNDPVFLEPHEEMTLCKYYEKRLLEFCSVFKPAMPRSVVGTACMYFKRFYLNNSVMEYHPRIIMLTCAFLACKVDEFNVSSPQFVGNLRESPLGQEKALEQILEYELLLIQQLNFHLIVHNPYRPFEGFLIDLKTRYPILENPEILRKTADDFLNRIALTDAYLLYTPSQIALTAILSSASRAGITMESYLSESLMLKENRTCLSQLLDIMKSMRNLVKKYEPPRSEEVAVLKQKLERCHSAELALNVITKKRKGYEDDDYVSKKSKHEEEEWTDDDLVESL
T8 sequence (P51948 whole entry partner): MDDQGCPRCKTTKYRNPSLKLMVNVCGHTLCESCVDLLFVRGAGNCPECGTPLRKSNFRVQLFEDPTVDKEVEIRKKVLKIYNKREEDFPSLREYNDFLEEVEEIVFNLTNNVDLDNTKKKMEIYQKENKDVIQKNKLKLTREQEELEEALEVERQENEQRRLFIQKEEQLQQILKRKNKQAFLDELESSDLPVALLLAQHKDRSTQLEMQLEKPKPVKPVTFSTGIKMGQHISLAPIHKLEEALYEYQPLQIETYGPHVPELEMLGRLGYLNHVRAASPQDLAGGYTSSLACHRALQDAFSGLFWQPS
Particulars: non standard IC50 from 4 concentrations, kinase 3.3 nM, ATP 3 μM. The protocol: as §1, §2, §3, §4, §5, §6, §7

For a further test, the target named is T9, CDK19/CycC (Homo sapiens, UniProt Q9BWU1).
T9 construct: purchased ProQinase
T9 sequence (Q9BWU1 whole entry): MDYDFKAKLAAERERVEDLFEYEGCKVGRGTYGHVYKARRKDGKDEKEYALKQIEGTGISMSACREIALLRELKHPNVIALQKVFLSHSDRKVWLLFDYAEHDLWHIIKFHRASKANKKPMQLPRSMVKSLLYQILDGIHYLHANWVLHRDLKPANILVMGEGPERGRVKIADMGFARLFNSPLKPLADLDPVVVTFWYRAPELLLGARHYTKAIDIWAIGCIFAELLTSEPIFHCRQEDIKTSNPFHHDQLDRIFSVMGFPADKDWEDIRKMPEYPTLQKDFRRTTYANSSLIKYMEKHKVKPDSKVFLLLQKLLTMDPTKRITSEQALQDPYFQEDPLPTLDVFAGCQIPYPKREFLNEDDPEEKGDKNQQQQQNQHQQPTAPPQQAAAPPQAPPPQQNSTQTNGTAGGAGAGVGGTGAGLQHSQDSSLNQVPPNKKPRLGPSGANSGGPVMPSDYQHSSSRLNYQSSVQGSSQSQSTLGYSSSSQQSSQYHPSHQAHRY
T9 sequence (P24863 whole entry partner): as the sequence (P24863 whole entry partner) above
Particulars: non standard IC50 from 4 concentrations, kinase 30.9 nM, ATP 3 μM. The protocol: as §1, §2, §3, §4, §5, §6, §7

T2 sequence (P50750 whole entry): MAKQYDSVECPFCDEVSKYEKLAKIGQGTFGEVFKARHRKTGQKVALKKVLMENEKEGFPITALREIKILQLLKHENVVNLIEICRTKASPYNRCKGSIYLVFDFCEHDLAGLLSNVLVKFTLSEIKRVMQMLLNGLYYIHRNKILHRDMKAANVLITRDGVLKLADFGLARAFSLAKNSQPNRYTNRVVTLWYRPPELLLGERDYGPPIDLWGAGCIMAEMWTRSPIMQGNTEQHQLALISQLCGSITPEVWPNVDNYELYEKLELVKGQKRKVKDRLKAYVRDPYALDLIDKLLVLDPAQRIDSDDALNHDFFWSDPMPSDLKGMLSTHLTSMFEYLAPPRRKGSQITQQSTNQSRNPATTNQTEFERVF
T2 sequence (O60563 whole entry partner): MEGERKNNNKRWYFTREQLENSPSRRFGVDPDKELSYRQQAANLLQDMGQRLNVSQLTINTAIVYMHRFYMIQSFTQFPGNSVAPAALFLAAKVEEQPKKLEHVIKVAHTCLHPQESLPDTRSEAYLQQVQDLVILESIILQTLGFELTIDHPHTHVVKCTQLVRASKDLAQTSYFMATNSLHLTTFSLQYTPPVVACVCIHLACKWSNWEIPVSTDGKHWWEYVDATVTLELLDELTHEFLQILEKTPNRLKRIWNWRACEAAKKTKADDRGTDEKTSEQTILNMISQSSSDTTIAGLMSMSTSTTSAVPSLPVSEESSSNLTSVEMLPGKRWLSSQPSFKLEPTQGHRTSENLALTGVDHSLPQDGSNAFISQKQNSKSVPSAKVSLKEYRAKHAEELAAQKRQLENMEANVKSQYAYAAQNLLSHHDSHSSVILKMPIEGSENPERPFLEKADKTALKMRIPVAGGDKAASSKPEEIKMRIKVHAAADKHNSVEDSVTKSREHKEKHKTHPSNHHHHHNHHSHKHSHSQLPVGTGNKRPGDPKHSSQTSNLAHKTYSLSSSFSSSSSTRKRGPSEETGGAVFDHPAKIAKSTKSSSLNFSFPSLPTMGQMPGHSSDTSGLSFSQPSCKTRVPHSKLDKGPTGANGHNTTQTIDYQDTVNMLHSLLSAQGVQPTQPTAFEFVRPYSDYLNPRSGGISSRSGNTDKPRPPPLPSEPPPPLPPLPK

On to `Cc1cc(NC2CCN(C(=O)O[C@H]3CCN(C(=O)/C=C/CN(C)C)C3)CC2)n2ncc(C(C)C)c2n1` [Example 1, [(3S)-1-[(E)-4-(dimethylamino)but-2-enoyl]pyrrolidin-3-yl] 4-[(3-isopropyl-5-methyl-pyrazolo[1,5-a]pyrimidin-7-yl)amino]piperidine-1-carboxylate], for which the 50% inhibitory concentration (IC50) against CDK2/CycE1 is at least 20 µM; against CDK9/CycT1, 6.32 µM; at CDK6/CycD1, 8.08 µM; against CDK4/CycD1 it was 2.83 µM; against CDK16/CycY it was 9.07 µM; against CDK8/CycC, 10.9 µM. Also, the IC50 against CDK1/CycB1 was at least 20 µM; against CDK7/CycH/MAT1 it was 0.0928 µM; at CDK19/CycC, 7.41 µM.
